Experimental data published in patent US12643885B2, “KRAS G12D protein inhibitors” (TAIHO PHARMACEUTICAL CO., LTD., priority 2020, dated 2026).

Target: T1, KRAS G12D (Homo sapiens, UniProt P01116, G12D)
T1 construct: made in house; host or cells: Escherichia coli BL21 (DE3), pET28a
Assay: Inhibitory activity on KRAS G12D nucleotide (GDP-GTP) exchange reaction in vitro (SOS1-dependent, BODIPY FL GDP)
Assay type: biochemical
Conditions: BODIPY FL GDP-bound recombinant KRAS G12D, 25° C. 1 hour preincubation, then SOS1 and GMPPNP 30 minutes at room temperature
Source text: Test Example: Evaluation of Inhibitory Activity of Compounds of Examples 1-21 on KRAS G12D Nucleotide (GDP-GTP) Exchange Reaction In Vitro
Recombinant KRAS G12D (conjugated N-terminus His6-tag, TEV protease cleavage site and KRAS G12D residues 1-169 (SEQ ID NO: 1), prepared by the method described below) and cleaved recombinant SOS1 (residues 564-1049 (SEQ ID NO: 2), prepared by the method described below) proteins were expressed in E. coli and purified by affinity chromatography.
To prepare BODIPY FL (fluorescent dye) GDP-bound KRAS G12D protein, 50 μM KRAS G12D protein was incubated with 0.5 mM BODIPY FL GDP in a loading buffer (20 mM Tris-HCl (pH 7.5), 50 mM NaCl, 1 mM DTT and 2.5 mM EDTA) for 1 hour on ice. After the incubation, MgCl2 was added to a final concentration of 10 mM, followed by incubation at room temperature for 30 minutes.
The mixture was allowed to pass through a NAP-5 column to remove free nucleotides, and purified BODIPY FL GDP-bound KRAS G12D protein was used for compound evaluation.
For the measurement of the inhibitory activity of compounds on GDP-GTP exchange rate of recombinant KRAS G12D, BODIPY FL GDP-bound KRAS G12D protein was incubated with various concentrations of compounds of Formula (I), i.e., compounds of Examples 1-21, in a reaction buffer (20 mM Tris-HCl (pH 7.5), 100 mM NaCl, 1 mM MgCl2, 2 mM DTT, 0.1% Tween 20) at 25° C. for 1 hour.
After the incubation, recombinant SOS1 and GMPPNP (guanosine-5′-[(β,γ)-imido]triphosphate, tetralithium salt) (Jena Bioscience GmbH, Jena, Germany) were added and incubated at room temperature for 30 minutes to proceed SOS1-dependent GDP-GTP exchange reaction on KRAS G12D. Replacement of BODIPY FL GDP by GMPPNP was measured by calculating the ratio of fluorescence intensities of BODIPY FL before and after the exchange reaction.
Inhibition % was calculated by setting the fluorescence ratio from the reaction without test compound (DMSO control) and the fluorescence ratio from the reaction without SOS1 and GMPPNP as 0% and 100% inhibition, respectively. IC50 values were calculated from a dose titration curve using curve fitting by XLfit software (IDBS, Boston, Massachusetts, US).

T1 sequence (P01116 with tags, fused parts or gaps isoform P01116-2 G12D): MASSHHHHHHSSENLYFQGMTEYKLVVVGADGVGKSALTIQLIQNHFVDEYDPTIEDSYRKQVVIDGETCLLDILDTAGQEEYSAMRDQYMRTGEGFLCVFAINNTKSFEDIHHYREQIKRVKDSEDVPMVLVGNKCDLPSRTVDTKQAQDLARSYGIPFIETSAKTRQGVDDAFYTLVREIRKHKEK

| SMILES | IC50 [µM] |
| --- | --- |
| C[C@@H]1NC[C@H]1N(C)C(=O)c1c(Cl)nc(CNc2n[nH]c3cc(Cl)c(C(C)(C)C)cc23)n1C (relative stereo) [Example 11] | 43.7 |
| C[C@H]1CNC[C@@H]1N(C)C(=O)c1c(Cl)nc(CNc2n[nH]c3cc(Cl)c(C(C)(C)C)cc23)n1C (relative stereo) [Example 13, 2-(((5-(tert-butyl)-6-chloro-1H-indazol-3-yl)amino)methyl)-4-chloro-N,1-dimethyl-N-(trans-4-methylpyrrolidin-3-yl)-1H-imidazole-5-carboxamide] | 17.1 |
| C[C@@H]1CNC[C@@H]1N(C)C(=O)c1c(Cl)nc(CNc2n[nH]c3cc(Cl)c(C(C)(C)C)cc23)n1C (relative stereo) [Example 14, 2-(((5-(tert-butyl)-6-chloro-1H-indazol-3-yl)amino)methyl)-4-chloro-N,1-dimethyl-N-(cis-4-methylpyrrolidin-3-yl)-1H-imidazole-5-carboxamide] | 43.1 |
| CN(C(=O)c1c(Cl)nc(CNc2n[nH]c3cc(Cl)c(C(C)(C)C)cc23)n1C)C1CNC1 [Example 1, N-(azetidin-3-yl)-2-(((5-(tert-butyl)-6-chloro-1H-indazol-3-yl)amino)methyl)-4-chloro-N,1-dimethyl-1H-imidazole-5-carboxamide] | 20.7 |
| CN(C(=O)c1c(Cl)nc(CNc2n[nH]c3cc(Cl)c(C(C)(C)C)cc23)n1C)[C@H]1CCNC1 [Example 2, (S)-2-(((5-(tert-butyl)-6-chloro-1H-indazol-3-yl)amino)methyl)-4-chloro-N,1-dimethyl-N-(pyrrolidin-3-yl)-1H-imidazole-5-carboxamide] | 12.4 |
| CN(C(=O)c1c(Cl)nc(CNc2n[nH]c3cc(Cl)c(C(C)(C)C)cc23)n1C)[C@@H]1CCNC1 [Example 3, (R)-2-(((5-(tert-butyl)-6-chloro-1H-indazol-3-yl)amino)methyl)-4-chloro-N,1-dimethyl-N-(pyrrolidin-3-yl)-1H-imidazole-5-carboxamide] | 18.7 |
| Cn1c(CNc2n[nH]c3cc(Cl)c(C(C)(C)C)cc23)nc(Cl)c1C(=O)N1CCCNCC1 [Example 4, (2-(((5-(tert-butyl)-6-chloro-1H-indazol-3-yl)amino)methyl)-4-chloro-1-methyl-1H-imidazol-5-yl)(1,4-diazepan-1-yl)methanone] | 38 |
| CC(C)N1CC[C@@H](n2c(CNc3n[nH]c4cc(Cl)c(C(C)(C)C)cc34)nc(Cl)c2C(=O)N(C)[C@@H]2CCNC2)C1 [Example 5, 2-(((5-(tert-butyl)-6-chloro-1H-indazol-3-yl)amino)methyl)-4-chloro-1-((R)-1-isopropylpyrrolidin-3-yl)-N-methyl-N-((R)-pyrrolidin-3-yl)-1H-imidazole-5-carboxamide] | 1.3 |
| CC(C)N1CC[C@@H](n2c(CNc3n[nH]c4cc(Cl)c(C(C)(C)C)cc34)nc(Cl)c2C(=O)N(C)C2CNC2)C1 [Example 6, (R)-N-(azetidin-3-yl)-2-(((5-(tert-butyl)-6-chloro-1H-indazol-3-yl)amino)methyl)-4-chloro-1-(1-isopropylpyrrolidin-3-yl)-N-methyl-1H-imidazole-5-carboxamide] | 3.8 |
| CN(CCN)C(=O)c1c(Cl)nc(CNc2n[nH]c3cc(Cl)c(C(C)(C)C)cc23)n1C [Example 7, N-(2-aminoethyl)-2-(((5-(tert-butyl)-6-chloro-1H-indazol-3-yl)amino)methyl)-4-chloro-N,1-dimethyl-1H-imidazole-5-carboxamide] | 43.5 |
| CC(C)N1CC[C@@H](n2c(CNc3n[nH]c4cc(Cl)c(C(C)(C)C)cc34)nc(Cl)c2C(=O)N(C)CCN)C1 [Example 8, (R)-N-(2-aminoethyl)-2-(((5-(tert-butyl)-6-chloro-1H-indazol-3-yl)amino)methyl)-4-chloro-1-(1-isopropylpyrrolidin-3-yl)-N-methyl-1H-imidazole-5-carboxamide] | 35.3 |
| CC[C@@H]1CNC[C@@H]1N(C)C(=O)c1c(Cl)nc(CNc2n[nH]c3cc(Cl)c(C(C)(C)C)cc23)n1C [Example 9, 2-(((5-(tert-butyl)-6-chloro-1H-indazol-3-yl)amino)methyl)-4-chloro-N-((3R,4R)-4-ethylpyrrolidin-3-yl)-N,1-dimethyl-1H-imidazole-5-carboxamide] | 33.5 |
| CN(C(=O)c1c(Cl)nc(CNc2n[nH]c3cc(Cl)c(C(C)(C)C)cc23)n1C)[C@@H]1CNCC12CC2 [Example 10, (S)-2-(((5-(tert-butyl)-6-chloro-1H-indazol-3-yl)amino)methyl)-4-chloro-N,1-dimethyl-N-(5-azaspiro[2.4]heptan-7-yl)-1H-imidazole-5-carboxamide] | 46.9 |
| CN[C@H]1C[C@@H]1N(C)C(=O)c1c(Cl)nc(CNc2n[nH]c3cc(Cl)c(C(C)(C)C)cc23)n1C [Example 12, 2-(((5-(tert-butyl)-6-chloro-1H-indazol-3-yl)amino)methyl)-4-chloro-N,1-dimethyl-N-((1S,2S)-2-(methylamino)cyclopropyl)-1H-imidazole-5-carboxamide] | 38.2 |
| CN(C(=O)c1c(Cl)nc(CNc2cc(C(C)(C)C)c(Cl)cc2O)n1C)[C@@H]1CCNC1 [Example 15, (R)-2-(((5-(tert-butyl)-4-chloro-2-hydroxyphenyl)amino)methyl)-4-chloro-N,1-dimethyl-N-(pyrrolidin-3-yl)-1H-imidazole-5-carboxamide] | 32.9 |
| CN(C(=O)c1c(Cl)nc(CNc2cc(C(C)(C)C)c(Cl)cc2O)n1C)[C@H]1CCNC1 [Example 16, (S)-2-(((5-(tert-butyl)-4-chloro-2-hydroxyphenyl)amino)methyl)-4-chloro-N,1-dimethyl-N-(pyrrolidin-3-yl)-1H-imidazole-5-carboxamide] | 26.2 |
| CN(C(=O)c1c(Cl)nc(CNc2cc(C(C)(C)C)c(Cl)cc2O)n1C)C1CNC1 [Example 17, N-(azetidin-3-yl)-2-(((5-(tert-butyl)-4-chloro-2-hydroxyphenyl)amino)methyl)-4-chloro-N,1-dimethyl-1H-imidazole-5-carboxamide] | 12 |
| CC(C)N1CC[C@@H](n2c(CNc3cc(C(C)(C)C)c(Cl)cc3O)nc(Cl)c2C(=O)N(C)[C@@H]2CCNC2)C1 [Example 18, 2-(((5-(tert-butyl)-4-chloro-2-hydroxyphenyl)amino)methyl)-4-chloro-1-((R)-1-isopropylpyrrolidin-3-yl)-N-methyl-N-((R)-pyrrolidin-3-yl)-1H-imidazole-5-carboxamide] | 1.6 |
| CC(C)N1CC[C@@H](n2c(CNc3cc(C(C)(C)C)c(Cl)cc3O)nc(Cl)c2C(=O)N(C)[C@H]2CCNC2)C1 [Example 19, 2-(((5-(tert-butyl)-4-chloro-2-hydroxyphenyl)amino)methyl)-4-chloro-1-((R)-1-isopropylpyrrolidin-3-yl)-N-methyl-N-((S)-pyrrolidin-3-yl)-1H-imidazole-5-carboxamide] | 3.7 |
| CC(C)N1CC[C@@H](n2c(CNc3cc(C(C)(C)C)c(Cl)cc3O)nc(Cl)c2C(=O)N(C)C2CNC2)C1 [Example 20, (R)-N-(azetidin-3-yl)-2-(((5-(tert-butyl)-4-chloro-2-hydroxyphenyl)amino)methyl)-4-chloro-1-(1-isopropylpyrrolidin-3-yl)-N-methyl-1H-imidazole-5-carboxamide] | 3.2 |
| CN(C(=O)c1c(Cl)nc(CNc2n[nH]c3cc(Cl)c(C(C)(C)C)cc23)n1C)C1CCNC1 (stereo not drawn) [Example 21, 2-(((5-(tert-butyl)-6-chloro-1H-indazol-3-yl)amino)methyl)-4-chloro-N,1-dimethyl-N-(pyrrolidin-3-yl)-1H-imidazole-5-carboxamide] | 31.5 |
